# Data as given in PubChem BioAssay AID1919004 (Molecular Pharmacology Branch, DTP, NCI, 2023).
# Tested on: 883617-216-R-J1-PDC complex spheroids, growth, % test/control
# Experiment: Anticancer human tumor 883617-216-R-J1-PDC patient-derived bladder carcinoma cell line growth inhibition [AhR]
# Conditions: for IC50: curve of first compound; for viability, T/C: stronger effect = lower value
# Outline: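 Complex tumor spheroids co-cultured with HUVEC and human MSC stroma; AhR antagonists tested in combination with standard-of-care and investigational agents. Top concentration at or near clinical Cmax (else 10 microM), half-log dilutions; growth expressed as percent test/control.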
# [1] = second compound 0.1 µM, first compound 0.000949 µM
# [2] = second compound 0.1 µM, first compound 0.003 µM
# [3] = second compound 0.1 µM, first compound 0.00949 µM
# [4] = second compound 0.1 µM, first compound 0.03 µM
# [5] = second compound 0.1 µM, first compound 0.0949 µM
# [6] = second compound 0.1 µM, first compound 0.3 µM
# [7] = second compound 0.316 µM, first compound 0.000949 µM
# [8] = second compound 0.316 µM, first compound 0.003 µM
# [9] = second compound 0.316 µM, first compound 0.00949 µM
# [10] = second compound 0.316 µM, first compound 0.03 µM
# [11] = second compound 0.316 µM, first compound 0.0949 µM
# [12] = second compound 0.316 µM, first compound 0.3 µM
# [13] = second compound 1 µM, first compound 0.000949 µM
# [14] = second compound 1 µM, first compound 0.003 µM
# [15] = second compound 1 µM, first compound 0.00949 µM
# [16] = second compound 1 µM, first compound 0.03 µM
# [17] = second compound 1 µM, first compound 0.0949 µM
# [18] = second compound 1 µM, first compound 0.3 µM
# [19] = second compound 3.16 µM, first compound 0.000949 µM
# [20] = second compound 3.16 µM, first compound 0.003 µM
# [21] = second compound 3.16 µM, first compound 0.00949 µM
# [22] = second compound 3.16 µM, first compound 0.03 µM
# [23] = second compound 3.16 µM, first compound 0.0949 µM
# [24] = second compound 3.16 µM, first compound 0.3 µM
# [25] = second compound 10 µM, first compound 0.000949 µM
# [26] = second compound 10 µM, first compound 0.003 µM
# [27] = second compound 10 µM, first compound 0.00949 µM
# [28] = second compound 10 µM, first compound 0.03 µM
# [29] = second compound 10 µM, first compound 0.0949 µM
# [30] = second compound 10 µM, first compound 0.3 µM
# 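Note: exposure lasted 7 days after dosing on day 3 of spheroid growth.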
compound,measurement,setting,value
CC(C)CC(NC(=O)C(Cc1ccccc1)NC(=O)c1cnccn1)B(O)O (stereo not given) + Cc1ccccc1N=Nc1ccc(NC(=O)c2ccnn2C)c(C)c1,IC50,second compound 0.1 µM,7.48 nM
same,IC50,second compound 0.316 µM,7.89 nM
same,IC50,second compound 1 µM,7.56 nM
same,IC50,second compound 3.16 µM,7.93 nM
same,IC50,second compound 10 µM,9.89 nM
same,"viability, T/C",[1],85.9%
same,"viability, T/C",[2],97.5%
same,"viability, T/C",[3],39.1%
same,"viability, T/C",[4],0.08%
same,"viability, T/C",[5],0.03%
same,"viability, T/C",[6],0.11%
same,"viability, T/C",[7],90.5%
same,"viability, T/C",[8],92.7%
same,"viability, T/C",[9],42.1%
same,"viability, T/C",[10],0.06%
same,"viability, T/C",[11],0.05%
same,"viability, T/C",[12],0.11%
same,"viability, T/C",[13],84.8%
same,"viability, T/C",[14],89.4%
same,"viability, T/C",[15],40.9%
same,"viability, T/C",[16],0.08%
same,"viability, T/C",[17],0.03%
same,"viability, T/C",[18],0.1%
same,"viability, T/C",[19],79.4%
same,"viability, T/C",[20],88.2%
same,"viability, T/C",[21],43.8%
same,"viability, T/C",[22],0.11%
same,"viability, T/C",[23],2.06%
same,"viability, T/C",[24],0.76%
same,"viability, T/C",[25],78%
same,"viability, T/C",[26],80.8%
same,"viability, T/C",[27],51.9%
same,"viability, T/C",[28],0.17%
same,"viability, T/C",[29],0.62%
same,"viability, T/C",[30],0.21%
CCc1c2c(nc3ccc(O)cc13)-c1cc3c(c(=O)n1C2)COC(=O)[C@]3(O)CC + Cc1ccccc1N=Nc1ccc(NC(=O)c2ccnn2C)c(C)c1,IC50,second compound 0.1 µM,185 nM
same,IC50,second compound 0.316 µM,163 nM
same,IC50,second compound 1 µM,121 nM
same,IC50,second compound 3.16 µM,109 nM
same,IC50,second compound 10 µM,199 nM
same,"viability, T/C",[1],92%
same,"viability, T/C",[2],84%
same,"viability, T/C",[3],72.7%
same,"viability, T/C",[4],70.2%
same,"viability, T/C",[5],60.3%
same,"viability, T/C",[6],42.1%
same,"viability, T/C",[7],80.8%
same,"viability, T/C",[8],82.2%
same,"viability, T/C",[9],77.6%
same,"viability, T/C",[10],66.8%
same,"viability, T/C",[11],56.5%
same,"viability, T/C",[12],43.6%
same,"viability, T/C",[13],80.9%
same,"viability, T/C",[14],83.8%
same,"viability, T/C",[15],79.1%
same,"viability, T/C",[16],61.6%
same,"viability, T/C",[17],54.4%
same,"viability, T/C",[18],44%
same,"viability, T/C",[19],81.7%
same,"viability, T/C",[20],84%
same,"viability, T/C",[21],70.7%
same,"viability, T/C",[22],64.7%
same,"viability, T/C",[23],51.5%
same,"viability, T/C",[24],39.4%
same,"viability, T/C",[25],78.8%
same,"viability, T/C",[26],77.2%
same,"viability, T/C",[27],72.6%
same,"viability, T/C",[28],74.8%
same,"viability, T/C",[29],56.8%
same,"viability, T/C",[30],44.9%
Nc1ccccc1NC(=O)c1ccc(CNC(=O)OCc2cccnc2)cc1 + Cc1ccccc1N=Nc1ccc(NC(=O)c2ccnn2C)c(C)c1,IC50,second compound 0.1 µM,1060 nM
same,IC50,second compound 0.316 µM,1080 nM
same,IC50,second compound 1 µM,901 nM
same,IC50,second compound 3.16 µM,818 nM
same,IC50,second compound 10 µM,1140 nM
same,"viability, T/C","second compound 0.1 µM, first compound 0.0316 µM",102%
same,"viability, T/C","second compound 0.1 µM, first compound 0.1 µM",103%
same,"viability, T/C","second compound 0.1 µM, first compound 0.316 µM",77.5%
same,"viability, T/C","second compound 0.1 µM, first compound 1 µM",51%
same,"viability, T/C","second compound 0.1 µM, first compound 3.16 µM",23.3%
same,"viability, T/C","second compound 0.1 µM, first compound 10 µM",1.52%
same,"viability, T/C","second compound 0.316 µM, first compound 0.0316 µM",85.7%
same,"viability, T/C","second compound 0.316 µM, first compound 0.1 µM",95%
same,"viability, T/C","second compound 0.316 µM, first compound 0.316 µM",86%
same,"viability, T/C","second compound 0.316 µM, first compound 1 µM",49.5%
same,"viability, T/C","second compound 0.316 µM, first compound 3.16 µM",18.6%
same,"viability, T/C","second compound 0.316 µM, first compound 10 µM",1.3%
same,"viability, T/C","second compound 1 µM, first compound 0.0316 µM",87.6%
same,"viability, T/C","second compound 1 µM, first compound 0.1 µM",88.5%
same,"viability, T/C","second compound 1 µM, first compound 0.316 µM",76.7%
same,"viability, T/C","second compound 1 µM, first compound 1 µM",44.8%
same,"viability, T/C","second compound 1 µM, first compound 3.16 µM",20.1%
same,"viability, T/C","second compound 1 µM, first compound 10 µM",1.53%
same,"viability, T/C","second compound 3.16 µM, first compound 0.0316 µM",80.2%
same,"viability, T/C","second compound 3.16 µM, first compound 0.1 µM",84.7%
same,"viability, T/C","second compound 3.16 µM, first compound 0.316 µM",70.6%
same,"viability, T/C","second compound 3.16 µM, first compound 1 µM",44.8%
same,"viability, T/C","second compound 3.16 µM, first compound 3.16 µM",16.6%
same,"viability, T/C","second compound 3.16 µM, first compound 10 µM",1.32%
same,"viability, T/C","second compound 10 µM, first compound 0.0316 µM",79.5%
same,"viability, T/C","second compound 10 µM, first compound 0.1 µM",76.6%
same,"viability, T/C","second compound 10 µM, first compound 0.316 µM",72.4%
same,"viability, T/C","second compound 10 µM, first compound 1 µM",51.9%
same,"viability, T/C","second compound 10 µM, first compound 3.16 µM",25.4%
same,"viability, T/C","second compound 10 µM, first compound 10 µM",2.23%
